Measured values as given in patent publication US4968686A, “Acyclic pyrrolo [2,3-d]pyrimidine analogs as antiviral agents” (The Regents of The University of Michigan, priority 1989, dated 1990).
Where two headings read alike, the source gives them in different places.

How the values were obtained:
HSV-1 HF strain = test: HSV-1 reduction assay, HF strain; type: cell-based, herpes simplex virus type 1 (HF strain); details: Human alphaherpesvirus 1; read-out: I50 with HF strain of HSV-1
Excerpt: The 148 strain of HSV-1 was used in most experiments and was provided by Dr. T. W. Schafer of Schering corporation. The HF strain of HSV-1 was used in selected experiments and was obtained from Dr. G. H. Cohen, University of Pennsylvania. The Towne strain, plaque-purified isolate Po, of HCMV was a gift of Dr. Mark Stinski, University of Iowa.
HSV-1 was titered using monolayer cultures of BSC-1 cells. Cells were planted at 3×10^5 cells/well using 6-well cluster dishes. MEM(E) supplemented with 10% fetal bovine serum was employed as medium. After 22-24 hours, cells were 90% confluent and were inoculated in triplicate using at least three ten-fold dilutions with 0.2 ml of the virus suspension to be assayed and incubated in a humidified 4% CO2 […] atmosphere for one hour to permit viral adsorption. Following virus adsorption, the cell sheet was overlayed with 5 ml of MEM(E) with 5% serum plus 0.5% methocel (4000 CPS) and incubated an additional two to three days. Cells were fixed and stained with 0.1% crystal violet in 20% methanol and macroscopic plaques enumerated.
Plaque reduction experiments were HSV-1 were performed using monolayer cultures of BSC-1 cells. The assay was performed exactly as described above except that the 0.2 ml virus suspension contained approximately 100 p.f.u. of HSV-1. Compounds to be tested were dissolved in the overlay medium at concentrations usually ranging from 0.1 to 100 μM in half-or-one logarithm10 dilutions. Titer reduction assays were performed by planting KB cells in 25 cm^2 plastic tissue culture flasks 10 to 24 hours prior to infection. At the onset of experiments, logarithmically growing replicate monolayer cultures were 60 to 80% confluent and contained 2.5 to 4.5×10^6 cells/flask. Medium was decanted and the cultures were infected with 2 to 10 p.f.u. of HSV-1 per cell. Virus was contained in 1.0 ml of VGM supplemented with 5% fetal bovine serum. After a 1 hour adsorption period at […], the cell sheet was rinsed twice with 2 ml of VGM without serum to remove unadsorbed virus and 5 ml of VGM containing drugs at three to five selected concentrations added in duplicate. Following an 18- to 22-hour incubation at 37° C., infected monolayers were treated with EDTA-trypsin to suspend the cells; aliquots were removed, subjected to three cycles of freezing and thawing, and stored at -76° C. for subsequent virus assay. Virus was titered on BSC-1 cells as described above.
Dose-response relationships were used to compare drug effects. These were constructed by linearly regressing the percent inhibition of parameters derived in the preceding sections against log drug concentrations. The 50% inhibitory (I50) concentrations were calculated from the regression lines using the methods described by Goldstein. […]

[1] = Drug toxicity control in uninfected mice; type: in vivo; details: for mortality: mouse, in vivo, ip, read-out: Mortality Percent (Toxicity)
MCMV = test: In vivo treatment of mice infected with murine cytomegalovirus (MCMV)
Method: Compound UMJD 183 was tested in mice infected with murine cytomegalovirus (MCMV). This animal model has been recognized as having capabilities predictive of efficacy in humans.
Compound UMJD 183 and the drug ganciclovir (DHPG) were administered to groups of 15 mice each at doses and times of administration shown in Table 3. Each compound at all doses was administered intraperitoneally twice daily for five days beginning at either 6, 24 or 48 hours after virus inoculation. Animals were observed daily and the number dying each day recorded.

Growth of HFF cells = type: cell-based, human; details: human, hff cells; 100 μM; 70-hour incubation; read-out: reduction of number of HFF cells
Method: Population doubling times and cell viability were measured in uninfected HFF and/or KB cells. Cells were planted in replicate 6-well plastic tissue culture dishes or in 25 cm^2 flasks as described above in part 1. Following an incubation period during which cells attached to the substrate, medium was decanted, the cell sheet rinsed once with HBS, and fresh medium added. The medium consisted of MEM(E) with 1.1 gm NaHCO3 /liter and 10% fetal bovine or calf serum plus appropriate log or half-log concentrations of drug. After additional periods of incubation from 1 to 72 hours at 37° C., cells were harvested by means of 0.05% trypsin plus 0.02% EDTA in a HEPES-buffered salt solution. Cells were enumerated using either a Coulter counter or a hemocytometer and viability determining using trypsan blue dye exclusion.
The effect of these compounds on the growth of human diploid fibroblasts (HFF cells) was less pronounced. During a 70-hour incubation, control cells underwent two doublings. […] A 100 μM concentration reduced the number of cells by less than 10%.

human PBLs = test: DNA synthesis in mitogen-stimulated human PBLs; type: cell-based; details: pokeweed mitogen or concanavalin A; 0.1, 1, 10 and 100 μM

Nc1ncnc2c1c(Br)cn2COCCO [UMJD 102, 4-Amino-5-bromo-7-(2-hydroxyethoxymethyl)pyrrolo[2,3-d]-pyrimidine]
IC50 (HSV-1 HF strain): 28 µM

Nc1ncnc2c1c(Br)cn2COC(CO)CO [UMJD 183, 4-amino-5-bromo-7-[(1,3-dihydroxy-2-propoxy)methyl]-pyrrolo[2,3-d]pyrimidine]
Mortality Number (Toxicity) ([1]; 1.9 mg/kg, no virus): 0/15
Mortality Number (Toxicity) ([1]; 5.6 mg/kg, no virus): 0/15
MDD (Toxicity) ([1]; 16.7 mg/kg, no virus): 5.0 days
Mortality Number (Toxicity) ([1]; 16.7 mg/kg, no virus): 1/15
Mortality Number (Toxicity) ([1]; 50 mg/kg, no virus): 0/15
toxicity in uninfected animals (in words) ([1]; administered alone to uninfected animals): virtually no toxicity
deaths in uninfected animals ([1]; all doses together): 1 death in 60 animals
mortality ([1]; 1.9 mg/kg, no virus): 0%
mortality ([1]; 5.6 mg/kg, no virus): 0%
mortality ([1]; 16.7 mg/kg, no virus): 7%
mortality ([1]; 50 mg/kg, no virus): 0%
MDD (Mean Day of Death) (MCMV; 1.9 mg/kg at 6 h): 6.2 days
Mortality Number (MCMV; 1.9 mg/kg at 6 h): 5/15
Mortality Percent (MCMV; 1.9 mg/kg at 6 h): 33%
MDD (Mean Day of Death) (MCMV; 1.9 mg/kg at 24 h): 4.8 days
Mortality Number (MCMV; 1.9 mg/kg at 24 h): 9/15
Mortality Percent (MCMV; 1.9 mg/kg at 24 h): 60%
MDD (Mean Day of Death) (MCMV; 1.9 mg/kg at 48 h): 4.8 days
Mortality Number (MCMV; 1.9 mg/kg at 48 h): 10/15
Mortality Percent (MCMV; 1.9 mg/kg at 48 h): 67%
number of animals surviving virus infection (in words) (MCMV; 5.6 mg/kg): highly significant increases in the number of animals surviving
MDD (Mean Day of Death) (MCMV; 5.6 mg/kg at 6 h): 8.0 days
Mortality Number (MCMV; 5.6 mg/kg at 6 h): 1/15
Mortality Percent (MCMV; 5.6 mg/kg at 6 h): 7%
MDD (Mean Day of Death) (MCMV; 5.6 mg/kg at 24 h): 6.3 days
Mortality Number (MCMV; 5.6 mg/kg at 24 h): 3/15
Mortality Percent (MCMV; 5.6 mg/kg at 24 h): 20%
MDD (Mean Day of Death) (MCMV; 5.6 mg/kg at 48 h): 5.5 days
Mortality Number (MCMV; 5.6 mg/kg at 48 h): 6/15
Mortality Percent (MCMV; 5.6 mg/kg at 48 h): 40%
MDD (Mean Day of Death) (MCMV; 16.7 mg/kg at 6 h): 8.7 days
Mortality Number (MCMV; 16.7 mg/kg at 6 h): 9/15
Mortality Percent (MCMV; 16.7 mg/kg at 6 h): 60%
MDD (Mean Day of Death) (MCMV; 16.7 mg/kg at 24 h): 7.1 days
Mortality Number (MCMV; 16.7 mg/kg at 24 h): 12/15
Mortality Percent (MCMV; 16.7 mg/kg at 24 h): 80%
MDD (Mean Day of Death) (MCMV; 16.7 mg/kg at 48 h): 8.4 days
Mortality Number (MCMV; 16.7 mg/kg at 48 h): 13/15
Mortality Percent (MCMV; 16.7 mg/kg at 48 h): 87%
MDD (Mean Day of Death) (MCMV; 50 mg/kg at 6 h): 10.8 days
Mortality Percent (MCMV; 50 mg/kg at 6 h): 60%
Mortality Number (MCMV; 50 mg/kg at 6 h, i.p. twice daily 5 days): 9/15
MDD (Mean Day of Death) (MCMV; 50 mg/kg at 24 h): 8.8 days
Mortality Number (MCMV; 50 mg/kg at 24 h): 14/15
Mortality Percent (MCMV; 50 mg/kg at 24 h): 93%
MDD (Mean Day of Death) (MCMV; 50 mg/kg at 48 h): 7.5 days
Mortality Number (MCMV; 50 mg/kg at 48 h): 13/15
Mortality Percent (MCMV; 50 mg/kg at 48 h): 87%
life span of MCMV-infected mice (in words) (MCMV; all doses): prolonged life span (increased the mean day of death) at all doses

Nc1ncnc2c1c(Cl)cn2COCCO [UMJD 100, 4-Amino-5-chloro-7-(2-hydroxyethoxymethyl)pyrrolo[2,3-d]-pyrimidine]
IC50 (HSV-1 HF strain): > 100 µM
inhibition at 70 h, 100 µM (Growth of HFF cells): < 10%
effect on DNA synthesis in human PBLs (human PBLs): did not affect DNA synthesis

Nc1nc(O)c2ncn(COC(CO)CO)c2n1 [Ganciclovir (DHPG), reference compound]
MDD (Mean Day of Death) (MCMV; 0.6 mg/kg at 6 h): 4.6 days
Mortality Number (MCMV; 0.6 mg/kg at 6 h): 14/15
Mortality Percent (MCMV; 0.6 mg/kg at 6 h): 93%
MDD (Mean Day of Death) (MCMV; 0.6 mg/kg at 24 h): 5.4 days
Mortality Number (MCMV; 0.6 mg/kg at 24 h): 12/15
Mortality Percent (MCMV; 0.6 mg/kg at 24 h): 80%
MDD (Mean Day of Death) (MCMV; 0.6 mg/kg at 48 h): 5.3 days
Mortality Number (MCMV; 0.6 mg/kg at 48 h): 14/15
Mortality Percent (MCMV; 0.6 mg/kg at 48 h): 93%
MDD (Mean Day of Death) (MCMV; 1.9 mg/kg at 6 h): 5.4 days
Mortality Number (MCMV; 1.9 mg/kg at 6 h): 5/15
Mortality Percent (MCMV; 1.9 mg/kg at 6 h): 33%
MDD (Mean Day of Death) (MCMV; 1.9 mg/kg at 24 h): 4.9 days
Mortality Number (MCMV; 1.9 mg/kg at 24 h): 12/15
Mortality Percent (MCMV; 1.9 mg/kg at 24 h): 80%
MDD (Mean Day of Death) (MCMV; 1.9 mg/kg at 48 h): 4.9 days
Mortality Number (MCMV; 1.9 mg/kg at 48 h): 11/15
Mortality Percent (MCMV; 1.9 mg/kg at 48 h): 73%
MDD (Mean Day of Death) (MCMV; 5.6 mg/kg at 6 h): 4.2 days
Mortality Number (MCMV; 5.6 mg/kg at 6 h): 5/15
Mortality Percent (MCMV; 5.6 mg/kg at 6 h): 33%
MDD (Mean Day of Death) (MCMV; 5.6 mg/kg at 24 h): 5.3 days
Mortality Number (MCMV; 5.6 mg/kg at 24 h): 7/15
Mortality Percent (MCMV; 5.6 mg/kg at 24 h): 47%
MDD (Mean Day of Death) (MCMV; 5.6 mg/kg at 48 h): 5.5 days
Mortality Number (MCMV; 5.6 mg/kg at 48 h): 10/15
Mortality Percent (MCMV; 5.6 mg/kg at 48 h): 67%
MDD (Mean Day of Death) (MCMV; 16.7 mg/kg at 6 h): 3.8 days
Mortality Number (MCMV; 16.7 mg/kg at 6 h): 4/15
Mortality Percent (MCMV; 16.7 mg/kg at 6 h): 27%
MDD (Mean Day of Death) (MCMV; 16.7 mg/kg at 24 h): 5.3 days
Mortality Number (MCMV; 16.7 mg/kg at 24 h): 7/15
Mortality Percent (MCMV; 16.7 mg/kg at 24 h): 47%
MDD (Mean Day of Death) (MCMV; 16.7 mg/kg at 48 h): 5.5 days
Mortality Number (MCMV; 16.7 mg/kg at 48 h): 8/15
Mortality Percent (MCMV; 16.7 mg/kg at 48 h): 53%

Nc1ncnc2c1c(I)cn2COCCO [UMJD 104, 4-Amino-5-iodo-7-(2-hydroxyethoxymethyl)pyrrolo[2,3-d]-pyrimidine]
IC50 (HSV-1 HF strain): 54 µM

Nc1nc2c(ncn2COCCO)c(=O)[nH]1 [Acyclovir, reference compound]
IC50 (HSV-1 HF strain): 36 µM
